Results on 79 compounds are retold here after the METLIN SMRT retention time set (Domingo-Almenara et al. 2019).

This series is described as follows: gradient 5% acetonitrile 3 min, to 50% in 2 min, to 85% in 15 min, held 3 min, 100 µL/min. The settings on record: column: Zorbax Extend-C18 2.1 x 50 mm; eluents: water / acetonitrile, 0.1% formic acid. In a few lines:
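Over 3 months, pure standards in mixtures of ~100 molecules were run by HPLC coupled to a quadrupole time-of-flight mass spectrometer in positive and negative ionization mode. The column was a Zorbax Extend-C18 (2.1 × 50 mm, 1.8 μm) at 100 μL/min, eluted with water and acetonitrile each holding 0.1% formic acid, with 40 μL dead and 900 μL dwell volumes. Retention time was determined from adduct peaks chosen by software and checked manually.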
Compound `Fc1cccc(-n2cc(-c3noc(-c4ccccc4F)n3)nn2)c1` had an RP-LC retention time of 1050 s.
For the compound `O=C1CCN(S(=O)(=O)c2ccccc2)CCCN(C(=O)C2(c3ccccc3)CC2)CCN1`, the RP-LC retention time is 758 s.
`COc1ccc2c(c1)C1(CCN(C(=O)c3ccc(Cl)cc3)C1)C(=O)N2` (centres undefined) showed an RP-LC retention time of 767 s.
Next, `Cc1ccc(NC(=O)Cn2nc3c(N4CCN(c5ccccc5C)CC4)nccn3c2=O)cc1F`: 1110 s.
With `COc1ccc(CC(=O)Nc2ccc(-c3cn4ccc(C)nc4n3)cc2)cc1` the figure was 639 s; with `O=C(C1CCN(c2nc3ccc(-c4cccnc4)nc3s2)CC1)N1CCOCC1`, 592 s; with `Cc1nn2c(CNC(=O)c3n[nH]c4c3CCCC4)c(-c3ccccc3)nc2s1`, 784 s.
Take `Cc1ccc(CS(=O)(=O)Nc2ccc3c(c2)nc(-c2ccc(C(=O)NC(C)C)cc2)n3C)cc1`: the RP-LC retention time is 702 s.
In turn, `CC1=C(c2ccc(C(C)C)cc2)S(=O)(=O)N=C1N1CCC(C(=O)N2CCOCC2)CC1` displayed an RP-LC retention time of 779 s.
Regarding `COC(=O)c1c(NC(=O)N2CCCN(c3nc4cccnc4s3)CC2)sc2c1CCCC2`, the RP-LC retention time was 1100 s.
Turning to `CCCn1cc(C(=O)Nc2ccc(OC)c(OC)c2)c(=O)c2ccc(C)nc21`, the RP-LC retention time stood at 1020 s.
The compound `CCc1c(C)nc2ncnn2c1NC(C)C` returned an RP-LC retention time of 670 s.
`CN(CC(=O)O)c1nc2c(F)cccc2s1` came in with an RP-LC retention time of 689 s.
Next, `Cc1ccc2c(c1)N(C)N=C(C(=O)N1CCCCCC1)S2(=O)=O`: 839 s.
Turning to `CCc1ccc(-n2nc(C)c3c(C(F)(F)F)cc(OCC(=O)NCc4ccco4)nc32)cc1`, the RP-LC retention time is 1300 s.
`Cc1ccccc1Oc1nccnc1N1CCCC(C(=O)NC2CCCCCC2)C1` (centres undefined): the RP-LC retention time is 1120 s.
In turn, `Cc1oc(-c2[nH]ncc2C(=O)N2CCCCC2)cc1S(=O)(=O)Nc1cccc(Cl)c1` returned an RP-LC retention time of 796 s.
On to `O=C(NCCc1csc(-c2cccs2)n1)C1CCN(S(=O)(=O)c2ccc(Cl)cc2)CC1`, for which the RP-LC retention time is 963 s.
`Cc1cccc(NC(=O)C2CC(=O)N(c3ccc4c(c3)CCN4C(=O)C3CC3)C2)c1C` (centres undefined) gave an RP-LC retention time of 763 s.
In turn, `Cc1nnc2sc(SCC(=O)Nc3cccc(C(F)(F)F)c3)nn2c1=O` gave an RP-LC retention time of 759 s.
`O=C(NC1CCCCC1)c1ccc(-n2cccn2)nc1`: the RP-LC retention time was 815 s.
`COc1ccc(C2(C(=O)N3CCO[C@@H](COc4ccccn4)[C@@H]3c3ccccc3)CC2)cc1` gave an RP-LC retention time of 1070 s.
In turn, `CCCNC(=O)c1csc(C(=O)NCC)n1` registered an RP-LC retention time of 670 s.
With `CCOc1ccc(-c2noc(Cn3c(=O)n(CC(C)C)c(=O)c4ccccc43)n2)cc1OC`, the RP-LC retention time was 1270 s.
Next, `COc1ccc(CCC(=O)N2CCC3(C2)C(=O)Nc2ccc(OC)cc23)cc1` (centres undefined): 751 s.
Take `COc1ccc(C2(C(=O)N3CCC4(CC3)C(OC)CN4c3cccc(F)c3)CC2)cc1` (centres undefined): the RP-LC retention time was 1090 s.
Next, `CN(C)CCNCc1ccc(-c2cccc(Cl)c2)o1`: 570 s.
On to `CCN1CCN(C(=O)CCC(=O)N2CCc3c(c(C(=O)N4CCCC4)nn3C)C2)CC1`, for which the RP-LC retention time was 563 s.
With `Cc1oc(-c2[nH]ncc2C(=O)N2CCCC2)cc1S(=O)(=O)NCCCN(C)C` the figure was 569 s; with `COc1ccc(-c2noc(-c3nc(-c4cc(OC)c(OC)c(OC)c4)no3)n2)cc1`, 1080 s; with `Cc1cccc(-c2nc3cnccn3c2NCCC(=O)NCC(C)C)c1`, 672 s.
Next, `CN(C)C(=O)c1ccc2c(c1)N(CC(=O)Nc1ccccc1Cl)C(=O)CS2`: 705 s; `Cc1cc(C)cc(-c2nc(-c3cccc(-c4ccnn4C)c3)no2)c1`: 1340 s; `CCC(=O)N1CCc2cc(N3CC(C(=O)Nc4ccc(OC)cc4C)CC3=O)ccc21` (centres undefined): 720 s.
Next, `CC(C)(C)c1noc(-c2ccnc(-n3cnc(C(=O)NC4CCCC4)c3)c2)n1`: 1020 s.
In the case of `CCCN1C(=O)c2c(C(=O)OC)ncn2CC1(C)C(=O)NCc1ccccc1` (centres undefined), the RP-LC retention time stood at 640 s.
Next, `COCCCNC(=O)C1CCCN(c2ncc(-c3ccc(F)cc3)cn2)C1` (centres undefined): 824 s; `Cc1ccc(-c2nc3cnccn3c2NCCC(=O)NC(C)c2cccs2)cc1` (centres undefined): 734 s.
As to `O=C(NC1CCCCC1N1C(=O)CSC1=O)c1ccc(=O)[nH]c1` (centres undefined), the RP-LC retention time is 583 s.
Next, `CCOc1nccnc1N1CCC(NC(=O)c2ccc(C#N)cc2)C1` (centres undefined): 650 s; `O=C(CS(=O)(=O)c1cn(Cc2cccc(F)c2)c2ccccc12)Nc1ccc(F)cc1`: 918 s.
Next, `COc1cccc(-n2c(N3CCCC(C(=O)NCc4cccs4)C3)nc3ccsc3c2=O)c1` (centres undefined): 822 s; `CCc1ccc(OCC(=O)Nc2nnc(C3CC(=O)N(c4ccc(Cl)cc4)C3)o2)cc1` (centres undefined): 888 s; `Cc1ccc(CNC(=O)CN2CCN(C(=O)Nc3ccc(Cl)cc3)CC2=O)o1`: 725 s.
The compound `Cn1c(=O)sc2cc(S(=O)(=O)N3CCC(C(=O)N4CCc5ccccc54)CC3)ccc21` yielded an RP-LC retention time of 933 s.
Compound `CCOC(=O)c1cccc(NC(=O)Cn2c(=O)c(CCC(=O)NC)nc3ccccc32)c1` gave an RP-LC retention time of 741 s.
In the case of `Cn1nc(-c2nc(-c3ccccc3F)no2)c2c1CCN(C(=O)NC1CCCC1)C2`, the RP-LC retention time stood at 800 s.
The compound `CC12C(=O)N(Cc3ccccc3)C(=O)C1C1C=CC2C1` (centres undefined) had an RP-LC retention time of 844 s.
`COc1ccccc1OCCNC(=O)C1CC(=O)N(c2n[nH]c3cccc(F)c23)C1` (centres undefined) returned an RP-LC retention time of 688 s.
Regarding `O=C(NCc1cccnc1)C1CCCN(c2ccc(Sc3ccc(Br)cc3)nn2)C1` (centres undefined), the RP-LC retention time came to 653 s.
With `Cc1ccc2[nH]cc(CCN3CC(C(=O)NCc4ccccc4Cl)CC3=O)c2c1` (centres undefined) the figure was 846 s; with `COc1cccc(-n2c(=O)c(C(=O)Nc3ccccc3)c(O)c3cccnc32)c1`, 1220 s.
Take `CCOc1ccccc1CNC(=O)C1CCN(Cc2c(C)n(CC)c3ccccc23)CC1`: the RP-LC retention time amounted to 780 s.
With `OC(CN1CCCCC1)c1ccc(/C=C/c2ccc(Cl)cc2)cc1` (centres undefined), the RP-LC retention time was 766 s.
In turn, `Cc1cccc(Sc2nccnc2N2CCCC(C(=O)NCc3ccc(C)c(C)c3)C2)c1` (centres undefined) showed an RP-LC retention time of 1210 s.
`CCOc1ccc(NC(=O)COc2cc(C)nc(N3CCCC3)n2)cc1` yielded an RP-LC retention time of 649 s.
With `COc1ccccc1C(=O)N1CCC(Oc2cc(N(C)C)ncn2)C1` (centres undefined), the RP-LC retention time stood at 639 s.
For the compound `COc1ccc(-c2nc(-c3ccc4nncn4c3)no2)c(OC)c1`, the RP-LC retention time is 800 s.
With `CCc1c(C)nc2nc(-c3ccccc3)nn2c1Nc1cc(OC)ccc1OC` the figure was 972 s; with `O=C(CN1CC=C(c2cnn(-c3ccc(F)cc3)c2)CC1)NC1CCCCC1`, 695 s; with `Cn1cc(C(=O)NCc2ccc3c(c2)OCO3)c2cccnc21`, 706 s.
With `CCCCn1cc(S(=O)(=O)Nc2ccc(F)cc2C)c2cccnc21` the figure was 989 s; with `CCc1ccccc1NC(=O)c1cccn1Cc1noc(C)n1`, 845 s; with `Cc1ccc(NC(=O)CSc2nccc(N3CCN(c4cc(C)ccc4C)CC3)n2)c(F)c1`, 1110 s.
With `CCn1nnc2cc(-c3noc(CNC(=O)Cc4ccc(Cl)cc4)n3)ccc21` the figure was 816 s.
`COc1cn(CC(=O)Nc2ccc(F)cc2F)c(CO)cc1=O` came in with an RP-LC retention time of 565 s.
Regarding `Cc1nn(-c2ccc(-c3ccccc3)nn2)c(C)c1S(=O)(=O)N1CCCC(C)C1` (centres undefined), the RP-LC retention time was found to be 1170 s.
With `O=C(CCc1c[nH]c2ccccc12)N1CCN(C(=O)c2cc(-c3ccncc3)n[nH]2)CC1` the figure was 807 s; with `O=C(NCc1ccco1)N1CCCn2nc(-c3cccc(Cl)c3)cc2C1`, 854 s; with `Cc1cccc(Cn2c(CN3CCC(C(=O)NCc4cccs4)CC3)cc3ccccc32)c1`, 805 s.
The compound `COc1ccc(NC(=O)Cn2c(N3CCCCC3)nc(C)cc2=O)cc1F` returned an RP-LC retention time of 717 s.
`CCOCC(=O)N1CCC(Oc2nccnc2N2CCOCC2)C1` (centres undefined) gave an RP-LC retention time of 640 s.
With `COCc1c(C(=O)O)nnn1-c1ccc(C(C)C)cc1` the figure was 825 s; with `Cc1cc(NCC(O)c2ccc([N+](=O)[O-])cc2)nc(-n2nc(C)cc2C)n1` (centres undefined), 592 s.
The compound `O=C(c1cc(F)ccc1Cl)N1CCc2nc(-c3ccc(Cl)cc3)ncc2C1` returned an RP-LC retention time of 1130 s.
On to `Cn1nnnc1C1CCCN(S(=O)(=O)Cc2ccccc2F)C1` (centres undefined), for which the RP-LC retention time worked out at 757 s.
`Cn1cc(CN2CCn3c(nnc3[C@@H]3C[C@@H](O)CN3Cc3cccnc3)C2)c2ccccc21` had an RP-LC retention time of 575 s.
Regarding `Cc1cnc(C(=O)N2CCCC(c3nnc4n3CCN(C(=O)C3CC3)C4)C2)cn1` (centres undefined), the RP-LC retention time is 584 s.
As to `Cc1nnc(-c2ccc(S(=O)(=O)N3CCC(C)CC3)o2)o1`, the RP-LC retention time is 815 s.
